Data: patent publication US7084248B2, “Peptide composition and method for delivering substances into the cytosol of cells” (Gene Tools, LLC, priority 2004, dated 2006)

Test system: cultured animal cells
Assay: Functional assay of cytosolic delivery of a Morpholino antisense oligo (splice-correction luciferase system)
Type: cell-based
Conditions: all-histidine peptides
Text: In contrast to the above design flexibility, the respective sizes of the lipophilic and weak-base faces of the delivery peptide have a substantial impact on that peptide's delivery efficiency. […] These assays utilized an established functional measurement of cytosolic delivery of a Morpholino antisense oligo in cultured cells (Kang, 1998). A representative test procedure of this type is described in Example 6, in a later section of his application.
The most definitive assessment of cytosolic delivery is one wherein when a cargo is delivered into the cytosol of a cell it generates a quantifiable signal proportional to the amount of cargo delivered into the cytosol. Also, for definitive results, that cargo should be completely stable within the cytosol so that increases due to delivery are not underestimated due to losses from degradation.
In the Kole test system (commercially available from GENE TOOLS, LLC, Philomath, Oreg.) a cell line has been stably transfected with a gene that codes for an RNA transcript that includes a mutation that generates a splicing error which acts to prevent the translation of luciferase coded by that RNA transcript. […] This leads to normal translation of the luciferase, and the light emission from that luciferase is readily quantitated in a luminometer. […]

Substance: poly-histidine
- delivery of a Morpholino antisense oligo into the cytosol of cultured animal cells: neither poly-histidine nor defined-length oligo-histidines achieved significant delivery
